The values below are quoted from earlier work in US7834038B2, “Methods for preparing nonpeptidic oligomers from amino acids” (New York University, priority 2005, dated 2010).

“Also recorded” adds a separate entry of the source.

This series concerns the target HIV-1 protease (Human immunodeficiency virus type 1 group M subtype B, UniProt P04585). As to conditions: known inhibitors, statement in words.

On to `CC(C)[C@H](NC(=O)OCc1ccccc1)C(=O)N[C@@H](Cc1ccccc1)[C@@H](O)[C@H](Cc1ccccc1)NC(=O)[C@H](NC(=O)OCc1ccccc1)C(C)C` [A-74704], for which the “inhibition of HIV-1 protease” value is reported as “very high affinities; also recorded: powerful inhibitor”. As for `O=C(N[C@H]1c2ccccc2C[C@H]1O)[C@H](Cc1ccccc1)CC(O)C[C@@H](Cc1ccccc1)C(=O)N[C@H]1c2ccccc2C[C@H]1O` [L-700,417], the “inhibition of HIV-1 protease” value is “very high affinities”.
